Experiments:
glucocorticoid receptors [1] = details: versus other steroid receptors, particularly mineralocorticoid; TEUTSCH et al. 1981; cited from earlier work
[2] = target: T1, glucocorticoid receptors of cytosol of rat thymus (Rattus norvegicus, UniProt P06536); assay: Fixation on glucocorticoid receptors of rat thymus cytosol (carbon-dextran adsorption); assay type: binding
T1 construct: carbon-dextran adsorption
T1 sequence (P06536 1-795): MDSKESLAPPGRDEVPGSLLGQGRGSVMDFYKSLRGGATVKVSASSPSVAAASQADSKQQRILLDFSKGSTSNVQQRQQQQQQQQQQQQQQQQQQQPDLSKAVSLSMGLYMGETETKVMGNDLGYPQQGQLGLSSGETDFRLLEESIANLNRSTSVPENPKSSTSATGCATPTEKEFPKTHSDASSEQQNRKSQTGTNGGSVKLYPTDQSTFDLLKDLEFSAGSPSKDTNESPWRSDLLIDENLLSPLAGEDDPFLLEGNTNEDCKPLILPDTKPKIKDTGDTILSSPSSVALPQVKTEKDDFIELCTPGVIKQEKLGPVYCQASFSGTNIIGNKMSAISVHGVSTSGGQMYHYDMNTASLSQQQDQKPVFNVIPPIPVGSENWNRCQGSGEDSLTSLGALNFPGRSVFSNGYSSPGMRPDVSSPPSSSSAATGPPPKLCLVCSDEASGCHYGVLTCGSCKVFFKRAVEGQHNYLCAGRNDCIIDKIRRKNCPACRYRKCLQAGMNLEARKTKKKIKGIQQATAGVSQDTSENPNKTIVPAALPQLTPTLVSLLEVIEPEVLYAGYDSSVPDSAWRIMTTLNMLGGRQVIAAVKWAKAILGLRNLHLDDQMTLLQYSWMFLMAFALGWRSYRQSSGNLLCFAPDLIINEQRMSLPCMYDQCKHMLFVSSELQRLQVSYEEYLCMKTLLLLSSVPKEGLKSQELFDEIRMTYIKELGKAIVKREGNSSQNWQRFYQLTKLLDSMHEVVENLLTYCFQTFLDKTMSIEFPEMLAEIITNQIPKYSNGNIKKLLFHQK
Experimental: (§1) (d) At 0° C. and 15° C., product A forms complexes with thymus glucocorticoid receptors which are stable for at least 24 hours. […] For this reason, it permits the total number of glucocorticoid fixation sites to be determined in different physiological conditions.

[3] = tested on: glucocorticoid receptors of the hippocampus; assay: Dissociation from glucocorticoid receptors of hippocampus cytosol; assay type: binding
plasmatic proteins = assay: Specific fixation on plasmatic proteins; assay type: binding; details: animals or humans
[4] = Stability and metabolism under in vitro incubation conditions; assay type: in vitro ADME; details: for metabolism in vitro in certain tissues: working in vitro, incubation conditions
Experimental: as §1

glucocorticoid receptors [5] = assay: Selectivity of fixation on steroid receptors; assay type: binding; details: compared with similar non-radioactive products
Source text: 651-665 (1981)]. Otherwise, other natural or synthetic corticoids which are used for this type of experiment, simultaneously fix on other steroid receptors and particularly on mineralocorticoid receptors. However, during such experiments with non-radioactive 6-methyl-17α-(prop-1-ynyl)-Δ^1,4,6 -androstatriene-11β,17β-diol-3-one, particularly when the tissues […] examined included simultaneously glucocorticoid and mineralocorticoid receptors, it was often necessary to adopt a succession of long and complicated methods.
Because of the radioactivity of the products of formula I, it is much easier to reveal the existence of the glucocorticoid receptors in the tissues of organs when mineralocorticoid receptors are also present, thanks to the use of the usual methods of liaison measurements taking advantage of radioactive products. In addition, what was not possible with a non-radioactive product, such, for example, as determining of the number of sites of fixation of the glucocorticoid receptors, becomes realizable by the use of the products of formula I.

[6] = 0° C. and 15° C., 24 hours, thymus receptor incubation

Question: With CC#CC1(O)CCC2C3C=C(C)C4=CC(=O)C=CC4(C)C3C(O)CC21C (stereo not drawn) [6-methyl-17α-(prop-1-ynyl)-Δ^1,4,6-androstatriene-11β,17β-diol-3-one] as the molecule, how does the “selectivity of fixation on glucocorticoid receptors” value (glucocorticoid receptors [1]) read?
Answer: fixes selectively on the glucocorticoid receptors

Question: With [3H]C([3H])([3H])C1=CC2C(C(O)CC3(C)C2CCC3(O)C#CC)C2(C)C=CC(=O)C=C12 (stereo not drawn) [Product A, 6-methyl-^3 H3-17α-(prop-1-ynyl)-Δ^1,4,6-androstatriene-11β,17β-diol-3-one] as the molecule, how does the non-specific fixation ([2]; 0° C. and 15° C., 24 hours) read?
Answer: only shows a weak non-specific fixation

Question: What about the “constant of association (Ka)” value ([2]; 0° C., rat thymus cytosol, adsorption by carbon-dextran) of the same molecule?
Answer: ~10^9 M^-1

Question: And the “constant of association relative to dexamethazone” value ([2]; 0° C., rat thymus cytosol, compared with dexamethazone)?
Answer: about twice as high as that of dexamethazone

Question: What about the “stability of complexes with thymus glucocorticoid receptors” value ([2]; at 0° C. and 15° C.) of the same molecule?
Answer: at least 24 hours

Question: What about the “replacement of non-radioactive corticosterone and cortisol fixed on glucocorticoid receptors” value ([2]; incubation at 15° C. for 24 hours) of the same molecule?
Answer: totally replaces

Question: What about the “shape of dissociation curve” value ([2]; thymus) of the same molecule?
Answer: a curve with one slope

Question: And the “speed of association (K+1)” value ([2]; towards the glucocorticoid receptors)?
Answer: ~10^6 M^-1 mn^-1

Question: And the “shape of dissociation curve” value [3]?
Answer: a curve with one slope

Question: And the “specific fixation on plasmatic proteins” value (plasmatic proteins)?
Answer: does not give rise to any specific fixation

Question: What about the loss of tritium [4, 6] of the same molecule?
Answer: does not show any loss of tritium

Question: And the “metabolism under incubation conditions” value [4, 6]?
Answer: is not subject to metabolism

Question: What about the “selective reactivity in respect of the glucocorticoid receptors” value (glucocorticoid receptors [5]) of the same molecule?
Answer: the same selective reactivity

Question: With C[C@]12C[C@H](O)[C@H]3[C@@H](CCC4=CC(=O)CC[C@@]43C)[C@@H]1CC[C@@H]2C(=O)CO [corticosterone, reference compound] as the molecule, how does the “metabolism in vitro in certain tissues” value [4] read?
Answer: are metabolized in certain tissues

Question: With C[C@]12CCC(=O)C=C1CC[C@@H]1[C@@H]2[C@@H](O)C[C@@]2(C)[C@H]1CC[C@]2(O)C(=O)CO [cortisol, reference compound] as the molecule, how does the “metabolism in vitro in certain tissues” value [4] read?
Answer: are metabolized in certain tissues

Question: For “^3 H-corticosterone [reference compound]”, which “shape of dissociation curve” value [3] is on record?
Answer: a dissociation curve with two slopes
